Experimental findings from patent US20220387370A1, “METHODS OF REDUCING NEUROLOGICAL DAMAGE IN WILSON DISEASE PATIENTS” (priority 2019, published 2022) are described below.

“Also recorded” adds a separate entry of the source.

In one assay the target is Cu-albumin (Bos taurus, UniProt P02769). How it is done:
EPR spectra were recorded at 77 K using an ECS106 spectrometer (Brucker BioSpin, Karlsruhe, Germany) operating in X-band at about 9.5 GHz.

Assay [1] deals with HepG2, EA.hy926, U87MG and SHSY5Y cells. As to the kind of experiment: Cu-albumin cell toxicity, CellTiter-Glo, all investigated cell lines. The assay is classed as cell-based, human. Conditions: 750 μM chelator, 250 μM albumin, copper 250 to 2500 μM, 24 h. How it is done:
(§1) SHSY5Y (human neuroblastoma), U87MG (human astrocytoma), EA.hy926 (human endothelium) and HepG2 (human hepatocellular carcinoma) cells were from ATCC (Wesel, Germany) and were cultured in Dulbecco's Modified Eagle Medium (DMEM) supplemented with 10% FCS (Biochrom, Berlin, Germany) and 1% antibiotic-antimycotic (Life Technologies, Carlsbad, USA). All cells were maintained at 37° C. in a humidified atmosphere with 5% CO2.
For orientation: ATP-based viability assays read luminescence as a measure of living cells.

The subject of assay [2] is HepG2 cells. As to the kind of experiment: Cu-albumin cell toxicity, CellTiter-Glo, HepG2. The assay is classed as cell-based, human. How it is done: as §1
In the next assay the test system is EA.hy926 cells. As to the kind of experiment: Cu-albumin cell toxicity, CellTiter-Glo, EA.hy926. The assay is classed as cell-based, human. On the procedure:
as §1

Assay [3] has as its system U87MG cells. The conditions noted are these: U87MG cells subjected to respirometry (FIG. 6A), non-toxic Cu-albumin setting. The text has this:
(§2) Afterwards, cells were trypsinized and counted.

Assay [4] has as its system HepG2 cells. The experiment in a line: Cellular copper content (ICP-OES), HepG2. The assay is classed as cell-based, human. The conditions noted are these: 750 μM copper, 250 μM albumin, 750 μM chelator, vs Cu-albumin alone.
Excerpt: as §2

The subject of assay [5] is HepG2 cells. The experiment in a line: Trypan blue-assessed cell viability under Cu-albumin, HepG2. The assay is classed as cell-based, human. Conditions: 750 μM copper, 250 μM albumin, 750 μM chelator.
Excerpt: as §2

Assay [6] relates to U87MG cells. As to the kind of experiment: High-resolution respirometry, U87MG. Conditions: Cu-albumin-treated, vs Cu-albumin alone. The assay is classed as cell-based, human. How it is done: Oxygen consumption was assessed by high-resolution respirometry (HRR) using the Oxygraph-2k and DatLab 7.0 (Oroboros Instruments GmbH, Innsbruck, Austria) as described previously (Pesta, D. and E. Gnaiger, Methods Mol Biol, 2012. 810: p. 25-58). Per chamber, 1.5-2×10^6 living cells were supplied in 2 mL of MiR05 buffer (0.5 mM EGTA, 3 mM MgCl2, 60 mM lactobionic acid, 20 mM taurine, 10 mM KH2PO4, 20 mM HEPES, 110 mM sucrose, 1 g/L albumin, pH 7.1) and routine respiration was measured. Addition of 2.5 μM oligomycin (inhibitor of the FOF1-ATPase) enabled the measurement of leak respiration and stepwise addition of CCCP (1 μL steps from 1 mM stock solution) allowed the determination of the maximum oxygen flux and thereby the capacity of the electron transport system (ETS). The oxygen flux was baseline-corrected for non-mitochondrial oxygen consuming processes (ROX) by the addition of 2.5 μM of the complex III-inhibitor antimycin A.

Assay [7] has as its system PBCEC monolayers. As to the kind of experiment: TEER and capacitance of PBCEC monolayers (endothelial blood-brain barrier model). The assay is classed as cell-based, porcine. The text has this: (§3) For transepithelial resistance (TEER) experiments (Srinivasan, B., et al., J Lab Autom, 2015. 20(2): p. 107-26), cryopreserved primary porcine brain capillary endothelial cells (PBCECs) were thawed and seeded either on rat tail collagen-coated 96-well plates for cytotoxicity testing using the Neutral red assay (Repetto, G., A. del Peso, and J. L. Zurita, Nat Protoc, 2008. 3(7): p. 1125-31) or Transwell® inserts (area: 1.12 cm^2, pore size: 0.4 μm: Corning, N.Y., USA) for barrier integrity studies. Cells were cultured for 48 hours in Earle's Medium 199 supplemented with 10% FCS, 50 U penicillin/mL, 50 μg/mL streptomycin, 100 μg/mL gentamycin and 0.7 mM I-glutamine and maintained at 37° C. in a humidified atmosphere with 5% CO2. […] TEER and capacitance values were continuously monitored over 48 h using a CellZscope device (nanoAnalytics, Münster, Germany). Only PBCEC monolayers with initial TEER values >600Ωcm^2 and capacitance values between 0.45 and 0.6 μF/cm^2 were used for permeability studies (Bornhorst, J., et al., J Biol Chem, 2012. 287(21): p. 17140-51). The barrier integrity was calculated by normalizing the TEER values to the respective start values.

The test system of assay [8] is PBCEC monolayers. The experiment in a line: Copper in the basolateral compartment of the Transwell PBCEC model (ICP-MS/MS). Type of assay: cell-based, porcine. Conditions: 250 μM copper and 83.3 μM albumin, 250 μM chelator, after 48 h.
Excerpt: as §3

The subject of assay [9] is tight junction protein claudin-5. The experiment in a line: Immunocytochemistry staining of claudin-5 in PBCEC monolayers. Type of assay: cell-based, porcine. Conditions: 250 μM copper and 83.3 μM albumin, 250 μM chelator. On the procedure:
Total copper was determined by ICP-MS/MS as previously described (Kopp, J. F., et al., J Trace Elem Med Biol, 2019. 54: p. 221-225). For the immunocytochemical staining of tight junction proteins, confluent PBCECs cultivated on Transwell® membrane inserts were processed as previously described ([…]., et al., Archives of Toxicology 2018. 92(2): p. 823-832). Briefly, PBCECs were fixed with formaldehyde and permeabilized using Triton X-100. After blocking of unspecific binding sites by albumin, the cells were incubated with the either anti-claudin 5 or anti-ZO-1 antibody (Zytomed Systems GmbH, Berlin, Germany). Following a second blocking step, the cells were treated with an Alexa Fluor® 488 conjugated secondary antibody (Invitrogen, Molecular Probes Inc., Eugene, USA). Hoechst 33258 (Merck, Darmstadt, Germany) was used to stain cell nuclei. Subsequently, membranes were cut out of the inserts and mounted in Aqua Poly/Mount (Polysciences Inc., Washington, USA). After a solidification period of 24 hours, the samples were evaluated using a DM6 B fluorescence microscope by Leica Microsystems CMS GmbH (Wetzlar, Germany) in combination with the Leica Application Suite X.

The test system of assay [10] is PBCEC monolayers. As to the kind of experiment: Electron microscopy of tight junctions of PBCECs. Type of assay: cell-based, porcine. Conditions: copper-treated PBCECs, electron micrographs. How it is done:
Electron microscopy of PBCECS grown on Transwell® inserts was performed as previously described (Ye, D., K. A. Dawson, and I. Lynch, Analyst, 2015. 140(1): p. 83-97) with minor modifications. Briefly, after fixation with 2.5% glutaraldehyde, cell monolayers were post-fixed with 1% osmium tetroxide for 30 min and dehydrated by ethanol.

For assay [11], the system named is HepG2, EA.hy926, U87MG and SHSY5Y cells. The conditions noted are these: 750 μM copper, 250 μM albumin, 750 μM chelator.
Protocol: 2×10^4 cells were seeded into each well of a 96-well plate and incubated overnight. […] Cell toxicity was either determined by CellTiter-Glo® assay (Promega, Madison, USA) or Trypan blue exclusion test.
Afterwards, cells were trypsinized and counted. Cell viability was determined by Trypan blue exclusion test.

Chain of Cu-albumin (P02769 25-607): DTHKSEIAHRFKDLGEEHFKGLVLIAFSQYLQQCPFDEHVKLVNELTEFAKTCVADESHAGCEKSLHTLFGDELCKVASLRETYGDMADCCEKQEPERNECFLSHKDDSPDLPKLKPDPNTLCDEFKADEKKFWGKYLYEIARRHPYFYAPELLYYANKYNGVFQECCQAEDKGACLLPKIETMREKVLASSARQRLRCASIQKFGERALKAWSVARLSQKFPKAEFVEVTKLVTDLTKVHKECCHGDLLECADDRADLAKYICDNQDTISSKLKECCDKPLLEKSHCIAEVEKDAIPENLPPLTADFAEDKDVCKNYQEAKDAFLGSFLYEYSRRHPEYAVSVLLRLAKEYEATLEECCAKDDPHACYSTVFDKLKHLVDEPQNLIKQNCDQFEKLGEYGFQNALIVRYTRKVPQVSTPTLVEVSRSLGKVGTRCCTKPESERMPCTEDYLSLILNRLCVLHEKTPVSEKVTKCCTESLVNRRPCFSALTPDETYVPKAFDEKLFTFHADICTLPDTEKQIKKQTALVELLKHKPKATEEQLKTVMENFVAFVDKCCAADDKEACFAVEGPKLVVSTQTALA

For `C[N+](C)(C)CCO.C[N+](C)(C)CCO.[SH-].[SH-].[S]=[Mo]=[S]` [ALXN1840, bis-choline tetrathiomolybdate], on Cu-albumin (TPC versus Cu-albumin), the “drop of signal intensity of EPR-active cupric copper” value is listed as “around 50%”. In addition, the “copper redox status in the tripartite complex (EPR)” value at Cu-albumin (albumin, copper and ALXN1840) is listed as “partial reduction of copper”. Moreover, the “CellTiterGlo-assessed cell viability / Cu-albumin toxicity” value in [1] is listed as “fully avoided such toxicity up to a Cu-albumin ratio of 4:1”; in the assay with HepG2 cells [2] (HepG2, 750 μM chelator), “protected”; with HepG2 cells [2] (HepG2, low dose of chelator (250 μM)) it was “partially rescued”; with EA.hy926 cells (EA.hy926, 750 μM chelator), “protected”; with EA.hy926 cells (EA.hy926, low dose of chelator (250 μM)), “partially rescued”. Moreover, the figures for the cellular copper content result in the assay with U87MG cells [3] and in the assay on HepG2 cells [4] were “significantly lower” and “highly similar cellular copper contents; also recorded: this effect was not present”, respectively. Moreover, the “Trypan blue-assessed cell viability / copper-related cell toxicity” value with HepG2 cells [5] is “rescued HepG2 cells”; in assay [11], “cellular viability was significantly maintained; also recorded: protected all cell lines”. The “respiratory control ratio E/L (ETS to leak respiration)” value in the assay with U87MG cells [6] was “tendentiously; also recorded: less pronounced”. The “transepithelial electrical resistance (TEER)” value in the assay on PBCEC monolayers [7] (250 μM copper and 83.3 μM albumin, 250 μM chelator, 48 h) was “stable TEER values for 48 h; also recorded: could be rescued”. Besides, in the assay on PBCEC monolayers [7] (Cu-albumin treatment in the absence or presence of chelator), the capacitance values result is “unaffected”. Further, the “copper in the basolateral compartment (copper influx)” value with PBCEC monolayers [8] is reported as “fully avoided; also recorded: significantly lower amount of copper”. Besides, in assay [9], the “claudin-5 staining pattern / copper-induced gap formation” value is “continuous and uninterrupted; also recorded: less pronounced”. The “loss of electron-dense protein complexes at the cell-cell borders” value in the assay on PBCEC monolayers [10] is recorded as “can be prevented”.
